Experimental data: patent US20240041042A1, “1-(PYRIDYL)-5-AZINYLPYRAZOLE DERIVATIVES, AND THEIR USE FOR CONTROL OF UNDESIRED PLANT GROWTH” (Bayer Aktiengesellschaft, priority 2020, published 2024)
Where two headings read alike, the source gives them in different places.

Key:
Format in all cases: in vivo
[1] = test system: Verconica persica (VERPE); experiment: Post-emergence herbicidal action against VERPE
How it was run: (§1)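 Greenhouse plants sprayed at the one-leaf stage, 2–3 weeks after sowing, with WP or EC formulations plus 0.5% additive at 600 l/ha water. Activity rated visually after about 3 weeks versus untreated controls (100% = dead, 0% = like control), at 320 g/ha or lower.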

[2] = test system: Pharbitis purpurea (PHBPU); experiment: Post-emergence herbicidal action against PHBPU
How it was run: as §1

Viola tricolor (VIOTR) = experiment: Post-emergence herbicidal action against VIOTR
How it was run: as §1

[3] = test system: Triticum aestivum (TRZAS); settings: crop plant compatibility, effect vs untreated controls
How it was run: (§2)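 Effects were read visually as % versus untreated controls (0% = no effect, 100% = death) about 3 weeks post-treatment. Application was a post-emergence spray at the one-leaf stage of WP/EC formulations with 0.5% additive at 600 l/ha. Different dosages are denoted a, b and c.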

Zea mays (ZEAMX) = settings: for Post-emergence action against ZEAMX in % (crop plant compatibility): 20 g/ha, effect in comparison to untreated controls; for Post-emergence action against ZEAMX in %: crop plant compatibility, effect vs untreated controls
How it was run: as §2

Setaria viridis (SETVI) = experiment: Post-emergence herbicidal action against SETVI
How it was run: as §1

[4] = test system: Abutilon theophrasti (ABUTH); experiment: Post-emergence herbicidal action against ABUTH; settings: visual rating about 3 weeks after treatment vs untreated controls (100% = plants have died, 0% = like control plants)
How it was run: as §1

[5] = test system: Polygonum convolvulus (POLCO); experiment: Post-emergence herbicidal action against POLCO
How it was run: as §1

Avena fatua (AVEFA) = experiment: Post-emergence herbicidal action against AVEFA; settings: visual rating about 3 weeks after treatment
How it was run: as §1

[6] = test system: Amaranthus retroflexus (AMARE); experiment: Post-emergence herbicidal action against AMARE
How it was run: as §1

Oryza sativa (ORYSA) = settings: crop plant compatibility
How it was run: as §2

[7] = test system: Echinochloa crus-galli (ECHCG); experiment: Post-emergence herbicidal action against ECHCG
How it was run: as §1

[8] = test system: Alopecurus myosuroides (ALOMY); experiment: Post-emergence herbicidal action against ALOMY; settings: visual rating about 3 weeks after treatment vs untreated controls (100% = plants have died, 0% = like control plants)
How it was run: as §1

[9] = test system: Digitaria sanguinalis (DIGSA); experiment: Post-emergence herbicidal action against DIGSA; settings: visual rating about 3 weeks after treatment
How it was run: as §1

[10] = test system: Matricaria inodora (MATIN); experiment: Post-emergence herbicidal action against MATIN
How it was run: as §1

Lolium rigidum (LOLRI) = experiment: Post-emergence herbicidal action against LOLRI
How it was run: as §1

[11] = 320 g/ha, visual rating about 3 weeks after treatment
[12] = 20 g/ha, effect vs untreated controls
[13] = 80 g/ha, effect in comparison to untreated controls
[14] = 320 g/ha, effect in comparison to untreated controls

COC(=O)CCOC(=O)COc1nn(-c2ccccn2)c(-c2ccc(F)nc2)c1C1CC1(F)F (stereo not drawn) [Example I-248]
Post-emergence action against VERPE in % ([1]; 320 g/ha, VERPE): 80% | Post-emergence action against PHBPU in % ([2]; dosage 320 g/ha): 90% | Post-emergence action against VIOTR in % (Viola tricolor (VIOTR); 80 g/ha): 80% | Post-emergence action against VIOTR in % (Viola tricolor (VIOTR); 320 g/ha): 80% | Post-emergence action against TRZAS in % ([3]; 20 g/ha): 0% | Post-emergence action against TRZAS in % ([3]; 80 g/ha): 0% | Post-emergence action against ZEAMX in % (crop plant compatibility) (Zea mays (ZEAMX)): 0% | Post-emergence action against ZEAMX in % (Zea mays (ZEAMX); 80 g/ha): 0%

CCOC(=O)COc1nn(-c2ccccn2)c(-c2ccc(F)nc2)c1C1CC1(F)F (stereo not drawn) [Example I-387]
Post-emergence action against TRZAS in % ([3]; 20 g/ha): 0% | Post-emergence action against TRZAS in % ([3]; 80 g/ha): 0% | Post-emergence action against TRZAS in % ([3]; 320 g/ha): 0% | Post-emergence action against ZEAMX in % (crop plant compatibility) (Zea mays (ZEAMX)): 0% | Post-emergence action against ZEAMX in % (Zea mays (ZEAMX); 80 g/ha): 0% | Post-emergence action against ZEAMX in % (Zea mays (ZEAMX); 320 g/ha): 0%

Cc1ncccc1-n1nc(OCC(=O)O)c(Br)c1-c1cncc(F)c1 [II-38]
Post-emergence action against SETVI in % (Setaria viridis (SETVI); dosage 320 g/ha): 90% | Post-emergence action against ABUTH in % ([4]; 320 g/ha): 80% | Post-emergence action against POLCO in % ([5]; dosage 320 g/ha): 90% | Post-emergence action against VERPE in % ([1]; 320 g/ha, VERPE): 90% | Post-emergence action against VERPE in % ([1]; dosage 80 g/ha): 80% | Post-emergence action against PHBPU in % ([2]; dosage 320 g/ha): 80% | Post-emergence action against VIOTR in % (Viola tricolor (VIOTR); 80 g/ha): 90% | Post-emergence action against VIOTR in % (Viola tricolor (VIOTR); 320 g/ha): 90% | Post-emergence action against AVEFA in % (Avena fatua (AVEFA); 320 g/ha): 90% | Post-emergence action against AMARE in % [6, 11]: 80% | Post-emergence action against TRZAS in % ([3]; 20 g/ha): 0% | Post-emergence action against TRZAS in % ([3]; 80 g/ha): 10% | Post-emergence action against ZEAMX in % (crop plant compatibility) (Zea mays (ZEAMX)): 0% | Post-emergence action against ZEAMX in % (Zea mays (ZEAMX); 80 g/ha): 0% | Post-emergence action against ZEAMX in % (Zea mays (ZEAMX); 320 g/ha): 0% | Post-emergence action against ORYSA in % (Oryza sativa (ORYSA); [12]): 0% | Post-emergence action against ORYSA in % (Oryza sativa (ORYSA); [13]): 0% | Post-emergence action against ORYSA in % (Oryza sativa (ORYSA); [14]): 0% | Post-emergence action against ECHCG in % ([7]; dosage 320 g/ha): 90% | Post-emergence action against ALOMY in % ([8]; 320 g/ha): 100%

O=C(COc1nn(-c2ncccc2F)c(-c2ccc(F)nc2)c1C1CC1)OCC1CCCO1 (stereo not drawn) [Example I-274]
Post-emergence action against SETVI in % (Setaria viridis (SETVI); dosage 80 g/ha): 90% | Post-emergence action against SETVI in % (Setaria viridis (SETVI); dosage 320 g/ha): 90% | Post-emergence action against ABUTH in % ([4]; 320 g/ha): 80% | Post-emergence action against DIGSA in % ([9]; 320 g/ha): 90% | Post-emergence action against POLCO in % ([5]; dosage 320 g/ha): 80% | Post-emergence action against VERPE in % ([1]; 320 g/ha, VERPE): 90% | Post-emergence action against VERPE in % ([1]; dosage 80 g/ha): 90% | Post-emergence action against PHBPU in % ([2]; dosage 320 g/ha): 80% | Post-emergence action against MATIN in % ([10]; dosage 320 g/ha): 90% | Post-emergence action against VIOTR in % (Viola tricolor (VIOTR); 80 g/ha): 80% | Post-emergence action against VIOTR in % (Viola tricolor (VIOTR); 320 g/ha): 90% | Post-emergence action against AVEFA in % (Avena fatua (AVEFA); 320 g/ha): 90% | Post-emergence action against AMARE in % [6, 11]: 90% | Post-emergence action against LOLRI in % (Lolium rigidum (LOLRI); dosage 80 g/ha): 80% | Post-emergence action against LOLRI in % (Lolium rigidum (LOLRI); dosage 320 g/ha): 90% | Post-emergence action against ZEAMX in % (crop plant compatibility) (Zea mays (ZEAMX)): 10% | Post-emergence action against ZEAMX in % (Zea mays (ZEAMX); 80 g/ha): 20% | Post-emergence action against ORYSA in % (Oryza sativa (ORYSA); [12]): 0% | Post-emergence action against ECHCG in % ([7]; dosage 80 g/ha): 80% | Post-emergence action against ECHCG in % ([7]; dosage 320 g/ha): 90% | Post-emergence action against ALOMY in % ([8]; 320 g/ha): 90%

O=C(COc1nn(-c2ncccc2F)c(-c2ccc(F)nc2)c1C1CC1)OCC1CC1 [Example I-318]
Post-emergence action against SETVI in % (Setaria viridis (SETVI); dosage 80 g/ha): 90% | Post-emergence action against SETVI in % (Setaria viridis (SETVI); dosage 320 g/ha): 90% | Post-emergence action against ABUTH in % ([4]; 80 g/ha): 80% | Post-emergence action against ABUTH in % ([4]; 320 g/ha): 80% | Post-emergence action against DIGSA in % ([9]; 80 g/ha): 90% | Post-emergence action against DIGSA in % ([9]; 320 g/ha): 90% | Post-emergence action against POLCO in % ([5]; dosage 80 g/ha): 90% | Post-emergence action against POLCO in % ([5]; dosage 320 g/ha): 90% | Post-emergence action against VERPE in % ([1]; 320 g/ha, VERPE): 90% | Post-emergence action against VERPE in % ([1]; dosage 80 g/ha): 90% | Post-emergence action against PHBPU in % ([2]; dosage 80 g/ha): 90% | Post-emergence action against PHBPU in % ([2]; dosage 320 g/ha): 90% | Post-emergence action against MATIN in % ([10]; dosage 80 g/ha): 80% | Post-emergence action against MATIN in % ([10]; dosage 320 g/ha): 80% | Post-emergence action against VIOTR in % (Viola tricolor (VIOTR); 80 g/ha): 80% | Post-emergence action against VIOTR in % (Viola tricolor (VIOTR); 320 g/ha): 90% | Post-emergence action against AVEFA in % (Avena fatua (AVEFA); 80 g/ha): 90% | Post-emergence action against AVEFA in % (Avena fatua (AVEFA); 320 g/ha): 90% | Post-emergence action against AMARE in % ([6]; 80 g/ha, visual rating about 3 weeks after treatment vs untreated controls (100% = plants have died, 0% = like control plants)): 90% | Post-emergence action against AMARE in % [6, 11]: 90% | Post-emergence action against LOLRI in % (Lolium rigidum (LOLRI); dosage 80 g/ha): 90% | Post-emergence action against LOLRI in % (Lolium rigidum (LOLRI); dosage 320 g/ha): 90% | Post-emergence action against ZEAMX in % (crop plant compatibility) (Zea mays (ZEAMX)): 0% | Post-emergence action against ZEAMX in % (Zea mays (ZEAMX); 80 g/ha): 0% | Post-emergence action against ORYSA in % (Oryza sativa (ORYSA); [12]): 0% | Post-emergence action against ECHCG in % ([7]; dosage 80 g/ha): 90% | Post-emergence action against ECHCG in % ([7]; dosage 320 g/ha): 90% | Post-emergence action against ALOMY in % ([8]; 80 g/ha): 90% | Post-emergence action against ALOMY in % ([8]; 320 g/ha): 90%

COCCOC(=O)COc1nn(-c2cccnc2C)c(-c2cncc(F)c2)c1Br [II-40]
Post-emergence action against SETVI in % (Setaria viridis (SETVI); dosage 320 g/ha): 90% | Post-emergence action against ABUTH in % ([4]; 320 g/ha): 80% | Post-emergence action against POLCO in % ([5]; dosage 80 g/ha): 80% | Post-emergence action against POLCO in % ([5]; dosage 320 g/ha): 80% | Post-emergence action against VERPE in % ([1]; 320 g/ha, VERPE): 90% | Post-emergence action against VERPE in % ([1]; dosage 80 g/ha): 80% | Post-emergence action against PHBPU in % ([2]; dosage 320 g/ha): 80% | Post-emergence action against VIOTR in % (Viola tricolor (VIOTR); 80 g/ha): 90% | Post-emergence action against VIOTR in % (Viola tricolor (VIOTR); 320 g/ha): 90% | Post-emergence action against AVEFA in % (Avena fatua (AVEFA); 320 g/ha): 90% | Post-emergence action against AMARE in % [6, 11]: 80% | Post-emergence action against TRZAS in % ([3]; 20 g/ha): 0% | Post-emergence action against TRZAS in % ([3]; 80 g/ha): 20% | Post-emergence action against ZEAMX in % (crop plant compatibility) (Zea mays (ZEAMX)): 0% | Post-emergence action against ZEAMX in % (Zea mays (ZEAMX); 80 g/ha): 0% | Post-emergence action against ZEAMX in % (Zea mays (ZEAMX); 320 g/ha): 10% | Post-emergence action against ORYSA in % (Oryza sativa (ORYSA); [12]): 0% | Post-emergence action against ORYSA in % (Oryza sativa (ORYSA); [13]): 0% | Post-emergence action against ORYSA in % (Oryza sativa (ORYSA); [14]): 0% | Post-emergence action against ECHCG in % ([7]; dosage 320 g/ha): 90% | Post-emergence action against ALOMY in % ([8]; 320 g/ha): 90%
